Assay results from patent US9937183B2, “Antimicrobial compounds and methods of making and using the same” (priority 2013, dated 2018).
≈ marks a conversion by molar mass, not a printed value. Read-outs that look alike come from different tables or passages of the source.

Tests used:
Assay type in all cases: cell-based
[1] = system: A. baumannii 1705936; experiment: MIC, microtiter-based liquid assay (CLSI); conditions: Acinetobacter baumannii, MDR strain
[2] = system: E. coli CAG12184 TolC; experiment: MIC, microtiter-based liquid assay (CLSI); conditions: Escherichia coli, CAG12184TOLC
[3] = system: E. coli 1705878; experiment: MIC, microtiter-based liquid assay (CLSI); conditions: Escherichia coli, MDR strain
[4] = system: B. mallei; experiment: microbe, parasite or virus in culture; conditions: Burkholderia mallei; for MIC50: read-out: B. mallei MIC50; for MIC90: read-out: B. mallei MIC90; for MIC: read-out: B. mallei MIC Range
[5] = system: K. pneumoniae 1705949; experiment: MIC, microtiter-based liquid assay (CLSI); conditions: Klebsiella pneumoniae, MDR strain
[6] = system: E. coli MG1655 parent; experiment: MIC, microtiter-based liquid assay (CLSI); conditions: Escherichia coli
[7] = system: S. pneumoniae 02J1175 Mef(A); experiment: MIC, microtiter-based liquid assay (CLSI); conditions: Streptococcus pneumoniae
[8] = system: K. pneumoniae 1705966; experiment: MIC, microtiter-based liquid assay (CLSI); conditions: Klebsiella pneumoniae
[9] = system: P. aeruginosa 1705886; experiment: MIC, microtiter-based liquid assay (CLSI); conditions: Pseudomonas aeruginosa
[10] = system: S. aureus 11540 MRSA; experiment: MIC, microtiter-based liquid assay (CLSI); conditions: Staphylococcus aureus
[11] = system: Y. pestis; experiment: microbe, parasite or virus in culture; conditions: Yersinia pestis; for MIC50: read-out: Y. pestis MIC50; for MIC90: read-out: Y. pestis MIC90; for MIC: read-out: Y. pestis MIC Range
[12] = system: E. faecium A6349 VanA + LNZ-R; experiment: MIC, microtiter-based liquid assay (CLSI); conditions: Enterococcus faecium
[13] = system: F. tularensis; experiment: microbe, parasite or virus in culture; conditions: Francisella tularensis; for MIC50: read-out: F. tularensis MIC50; for MIC90: read-out: F. tularensis MIC90; for MIC: read-out: F. tularensis MIC Range
[14] = system: E. coli ATCC25922; experiment: MIC, microtiter-based liquid assay (CLSI); conditions: Escherichia coli
[15] = system: A. baumannii 1705943; experiment: MIC, microtiter-based liquid assay (CLSI); conditions: Acinetobacter baumannii
[16] = system: P. aeruginosa 1705904; experiment: MIC, microtiter-based liquid assay (CLSI); conditions: Pseudomonas aeruginosa, MDR strain
[17] = system: B. pseudomallei; experiment: microbe, parasite or virus in culture; conditions: Burkholderia pseudomallei; for MIC50: read-out: B. pseudomallei MIC50; for MIC90: read-out: B. pseudomallei MIC90; for MIC: read-out: B. pseudomallei MIC Range
[18] = system: B. anthracis; experiment: microbe, parasite or virus in culture; conditions: Bacillus anthracis; for MIC50: read-out: B. anthracis MIC50; for MIC90: read-out: B. anthracis MIC90; for MIC: read-out: B. anthracis MIC Range
[19] = system: P. aeruginosa ATCC27853; experiment: MIC, microtiter-based liquid assay (CLSI); conditions: Pseudomonas aeruginosa
[20] = ATCC25922, read-out: MIC E. coli ATCC25922 + 50% HS
[21] = ATCC25922, read-out: MIC E. coli ATCC25922

Row | SMILES | MIC [1] [µg/mL] | MIC [2] [µg/mL] | MIC [3] [µg/mL] | MIC50 [4] [µg/mL] | MIC90 [4] [µg/mL] | MIC [4] [µg/mL] | MIC [5] [µg/mL] | MIC [6] [µg/mL] | MIC [7] [µg/mL] | MIC [8] [µg/mL] | MIC [9] [µg/mL] | MIC [10] [µg/mL] | MIC50 [11] [µg/mL] | MIC90 [11] [µg/mL] | MIC [12] [µg/mL] | MIC50 [13] [µg/mL] | MIC90 [13] [µg/mL] | MIC [13] [µg/mL] | MIC [14, 20] [µg/mL] | MIC [14, 21] [µg/mL] | other results
1 | COC[C@H](N)CCCc1cc(Cl)c(F)c(-c2cc3cn(-c4ccc(CNCCCNC(=N)N)cc4)c(=O)nc3[nH]2)c1 [Compound 6] | 4 (≈ 6.86 µM) | 0.25 (≈ 0.429 µM) | 1 (≈ 1.71 µM) | ≤ 0.03 | 0.12 (≈ 0.206 µM) | 0.03 to 0.5 (≈ 0.0514 to 0.857 µM) | 2 (≈ 3.43 µM) | 0.25 (≈ 0.429 µM) | 0.25 (≈ 0.429 µM) | 0.5 (≈ 0.857 µM) | 4 (≈ 6.86 µM) | 0.25 (≈ 0.429 µM) | 0.25 (≈ 0.429 µM) | > 16 | 4 | ≤ 0.03 | 0.06 (≈ 0.103 µM) | 0.03 to 1 (≈ 0.0514 to 1.71 µM) | 0.25 | 0.5 (≈ 0.857 µM) | MIC [15]: 0.25 µg/mL (≈ 0.429 µM); MIC [16]: 8 µg/mL (≈ 13.7 µM); MIC50 [17]: 8 µg/mL (≈ 13.7 µM); MIC90 [17]: 16 µg/mL (≈ 27.4 µM); MIC [17]: 1 to 32 µg/mL (≈ 1.71 to 54.9 µM); MIC50 [18]: 0.5 µg/mL (≈ 0.857 µM); MIC90 [18]: 0.5 µg/mL (≈ 0.857 µM); MIC [18]: 0.06 to 1 µg/mL (≈ 0.103 to 1.71 µM); MIC [19]: 8 µg/mL (≈ 13.7 µM)
2 | C[C@H](NCCCNC(=N)N)c1ccc(-n2cc3cc(-c4cc(CCC[C@@H](N)CO)cc(Cl)c4F)[nH]c3nc2=O)cc1 [Compound 5] | 2 (≈ 3.43 µM) | 0.06 (≈ 0.103 µM) | 2 (≈ 3.43 µM) | 0.06 (≈ 0.103 µM) | 0.25 (≈ 0.429 µM) | 0.03 to 0.5 (≈ 0.0514 to 0.857 µM) | 0.5 (≈ 0.857 µM) | 0.5 (≈ 0.857 µM) | 0.125 (≈ 0.214 µM) | 0.125 (≈ 0.214 µM) | 4 (≈ 6.86 µM) | 0.125 (≈ 0.214 µM) | 0.25 (≈ 0.429 µM) | 0.5 (≈ 0.857 µM) | 1 | ≤ 0.03 | ≤ 0.03 | 0.03 to 0.25 (≈ 0.0514 to 0.429 µM) | 0.25 | 0.125 (≈ 0.214 µM) | MIC [11]: 0.03 to 2 µg/mL (≈ 0.0514 to 3.43 µM); MIC [15]: 0.25 µg/mL (≈ 0.429 µM); MIC [16]: 8 µg/mL (≈ 13.7 µM); MIC50 [17]: 16 µg/mL (≈ 27.4 µM); MIC90 [17]: 16 µg/mL (≈ 27.4 µM); MIC50 [18]: 0.12 µg/mL (≈ 0.206 µM); MIC90 [18]: 0.12 µg/mL (≈ 0.206 µM); MIC [18]: 0.03 to 2 µg/mL (≈ 0.0514 to 3.43 µM); MIC [19]: 4 µg/mL (≈ 6.86 µM)
3 | C[C@H](NCCCNC(=N)N)c1ccc(-n2cc3cc(-c4cc(CCC5(CN)CC5)cc(Cl)c4F)[nH]c3nc2=O)cc1 [Compound 4] | 4 (≈ 6.91 µM) | 0.25 (≈ 0.432 µM) | 0.5 (≈ 0.863 µM) | ≤ 0.03 | 0.12 (≈ 0.207 µM) | 0.03 to 0.5 (≈ 0.0518 to 0.863 µM) | 1 (≈ 1.73 µM) | 0.25 (≈ 0.432 µM) | 0.5 (≈ 0.863 µM) | 0.25 (≈ 0.432 µM) | 2 (≈ 3.45 µM) | 0.25 (≈ 0.432 µM) | 0.25 (≈ 0.432 µM) | 0.25 (≈ 0.432 µM) | 4 | ≤ 0.03 | ≤ 0.03 | 0.03 to 1 (≈ 0.0518 to 1.73 µM) | 0.5 | 0.125 (≈ 0.216 µM) | MIC [11]: 0.03 to 0.5 µg/mL (≈ 0.0518 to 0.863 µM); MIC [15]: 0.25 µg/mL (≈ 0.432 µM); MIC [16]: 4 µg/mL (≈ 6.91 µM); MIC50 [17]: 2 µg/mL (≈ 3.45 µM); MIC90 [17]: 4 µg/mL (≈ 6.91 µM); MIC [17]: 0.5 to 8 µg/mL (≈ 0.863 to 13.8 µM); MIC50 [18]: 0.5 µg/mL (≈ 0.863 µM); MIC90 [18]: 0.5 µg/mL (≈ 0.863 µM); MIC [18]: 0.06 to 4 µg/mL (≈ 0.104 to 6.91 µM); MIC [19]: 4 µg/mL (≈ 6.91 µM)
4 | C[C@H](N)CCCc1cc(OC(F)(F)F)c(F)c(-c2cc3cn(-c4ccc([C@H](C)NCCCNC(=N)N)cc4)c(=O)nc3[nH]2)c1 [Compound 3] | 2 (≈ 3.24 µM) | 0.25 (≈ 0.405 µM) | 0.5 (≈ 0.811 µM) | 0.06 (≈ 0.0973 µM) | 0.12 (≈ 0.195 µM) | 0.03 to 0.5 (≈ 0.0486 to 0.811 µM) | 1 (≈ 1.62 µM) | 0.5 (≈ 0.811 µM) | 0.25 (≈ 0.405 µM) | 0.25 (≈ 0.405 µM) | 4 (≈ 6.49 µM) | 0.25 (≈ 0.405 µM) | 0.25 (≈ 0.405 µM) | 0.5 (≈ 0.811 µM) | 2 | ≤ 0.03 | 0.12 (≈ 0.195 µM) | 0.03 to 1 (≈ 0.0486 to 1.62 µM) | 0.5 | 0.25 (≈ 0.405 µM) | MIC [11]: 0.03 to 1 µg/mL (≈ 0.0486 to 1.62 µM); MIC [15]: 0.25 µg/mL (≈ 0.405 µM); MIC [16]: 8 µg/mL (≈ 13 µM); MIC50 [17]: 2 µg/mL (≈ 3.24 µM); MIC90 [17]: 4 µg/mL (≈ 6.49 µM); MIC [17]: 0.5 to 8 µg/mL (≈ 0.811 to 13 µM); MIC50 [18]: 0.25 µg/mL (≈ 0.405 µM); MIC90 [18]: 0.25 µg/mL (≈ 0.405 µM); MIC [18]: 0.03 to 2 µg/mL (≈ 0.0486 to 3.24 µM); MIC [19]: 8 µg/mL (≈ 13 µM)
5 | C[C@H](N)CCCc1cc(Cl)c(F)c(-c2cc3cn(-c4ccc([C@H](N)CCCCNC(=N)N)cc4)c(=O)nc3[nH]2)c1 [Compound 16] | 2 (≈ 3.53 µM) | 0.06 (≈ 0.106 µM) | 0.5 (≈ 0.882 µM) | ≤ 0.03 | 0.06 (≈ 0.106 µM) | 0.03 to 0.06 (≈ 0.0529 to 0.106 µM) | 2 (≈ 3.53 µM) | 0.25 (≈ 0.441 µM) | 0.25 (≈ 0.441 µM) | 0.25 (≈ 0.441 µM) | 4 (≈ 7.05 µM) | 0.25 (≈ 0.441 µM) | 0.12 (≈ 0.212 µM) | 0.25 (≈ 0.441 µM) | 2 | ≤ 0.03 | 0.12 (≈ 0.212 µM) | 0.03 to 1 (≈ 0.0529 to 1.76 µM) | 0.125 | 0.125 (≈ 0.22 µM) | MIC [11]: 0.03 to 0.5 µg/mL (≈ 0.0529 to 0.882 µM); MIC [15]: 0.125 µg/mL (≈ 0.22 µM); MIC [16]: 8 µg/mL (≈ 14.1 µM); MIC50 [17]: 4 µg/mL (≈ 7.05 µM); MIC90 [17]: 8 µg/mL (≈ 14.1 µM); MIC [17]: 2 to 16 µg/mL (≈ 3.53 to 28.2 µM); MIC50 [18]: ≤ 0.03 µg/mL; MIC90 [18]: 0.06 µg/mL (≈ 0.106 µM); MIC [18]: 0.03 to 0.12 µg/mL (≈ 0.0529 to 0.212 µM); MIC [19]: 4 µg/mL (≈ 7.05 µM)
